From patent US6355799B1, “Substituted benzene compounds, process for their preparation, and herbicidal and defoliant compositions containing them” (ISK Americas Incorporated, priority 1997, dated 2002)

How the values were obtained:
Format in all cases: in vivo
[1] = system: green foxtail (Setaria viridis, SETVI); assay: Pre-emerge test, greenhouse herbicide activity screening; settings: pre-emerge, 14 days after application, rating scale 0-100
From the text: (§1) A standard greenhouse herbicide activity screening system was used to evaluate the herbicidal efficacy and crop safety of these test compounds. Seven broadleaf weed species including redroot pigweed (Amaranthus retroflexus, AMARE, velvetleaf (Abutilon theophrasti, ABUTH), sicklepod (Cassia obtusifolia, CASOB), ivyleaf morningglory (Ipomoea hederacea, IPOHE), lambsquarters (Chenopodium album, CHEAL), common ragweed (Ambrosia artemisizfolia L., AMBEL), and cocklebur (Xanthium strumarium, XANST) were used as test species. Four grass weed species including green foxtail (Setaria viridis, SETVI), barnyardgrass (Echinochloa crus-galli, ECHCG), johnsongrass (Sorghum halepense, SORHA), and large crabgrass (Digitaria sanguinalis, DIGSA) were also used. In addition, three crop species, field corn (Zea mays L., var. Dekalb 535, CORN), soybean (Glycine max L., var. Pella 86, SOY), and is upland rice (Oryza sp., var. Tebonnet, RICE) were included.
(§2) All plants were grown in 10 cm square plastic pots which were filled with a sandy loam soil mix. For pre-emerge tests, seeds were planted one day prior to application of the test compounds. For post-emerge tests, seeds were planted 8-21 days prior to the test to allow emergence and good foliage development prior to application of the test substances. At the time of the post-emerge application, plants of all species were usually at the 2-3 leaf stage of development.
(§3) All test compounds Were dissolved in acetone and applied to the test units in a volume of 187 l /ha. Test materials were applied at rates ranging from 15 g ai/ha to 1000 g ai/ha using a track sprayer equipped with a TJ8001E even flow flat fan spray nozzle. Plants were arranged on a shelf so that the top of the canopy (post-emerge) or top of the soil surface (pre-emerge) was 40-45 cm below the nozzle. Pressurized air was used to force the test solution through the nozzle as it was mechanically advanced (via electrically driven chain drive) over the top of all test plants/pots. This application simulates a typical commercial field herbicide application.
(§4) In the post-emerge test, a commercial non-ionic surfactant was also included (0.25% v/v) to enhance wetting of the leaf surfaces of target plants. Immediately after application, test units of the pre-emerge applications were watered at the soil surface to incorporate the test materials. Subsequently, these test units were bottom-watered. Post-emerge test units were always bottom-watered.
(§5) At 14 days after application of the test materials, phytotoxicity ratings were recorded. A rating scale of 0-100 was used as previously described in Research Methods in Weed Science, 2nd edition, B. Truelove, Ed., Southern Weed Science Society, Auburn University, Auburn, Ala. 1977. Briefly, “0” corresponds to no damage and “100” corresponds to complete death of all plants in the test unit. This scale was used both to determine efficacy against weed species and damage to crop species. Herbicide activity data for various compounds of this invention, which are shown by compound No. in Tables 1-8, are shown in Tables 11 and 12.

[2] = system: large crabgrass (Digitaria sanguinalis, DIGSA); assay: as above; settings: pre-emerge, 14 days after application, rating scale 0-100
From the text: as §1, §2, §3, §4, §5

[3] = system: ivyleaf morningglory (Ipomoea hederacea, IPOHE); assay: as above; settings: pre-emerge, 14 days after application, rating scale 0-100
From the text: as §1, §2, §3, §4, §5

[4] = system: lambsquarters (Chenopodium album, CHEAL); assay: as above; settings: pre-emerge, 14 days after application, rating scale 0-100
From the text: as §1, §2, §3, §4, §5

[5] = system: sicklepod (Cassia obtusifolia, CASOB); assay: as above; settings: pre-emerge, 14 days after application, rating scale 0-100
From the text: as §1, §2, §3, §4, §5

[6] = system: barnyardgrass (Echinochloa crus-galli, ECHCG); assay: as above; settings: pre-emerge, 14 days after application, rating scale 0-100
From the text: as §1, §2, §3, §4, §5

[7] = system: velvetleaf (Abutilon theophrasti, ABUTH); assay: as above; settings: pre-emerge, 14 days after application, rating scale 0-100
From the text: as §1, §2, §3, §4, §5

[8] = system: redroot pigweed (Amaranthus retroflexus, AMARE); assay: as above; settings: pre-emerge, 14 days after application, rating scale 0-100
Procedure, shortened: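 Plants grown in 10 cm pots of sandy loam mix received acetone-dissolved compounds through a moving flat-fan nozzle. Doses ranged from 15 to 1000 g ai/ha. Pre-emerge pots were seeded one day earlier, post-emerge pots 8–21 days earlier. Fourteen days on, each pot was graded 0–100 for damage.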

[9] = system: green foxtail (Setaria viridis, SETVI); assay: Post-emerge test, greenhouse herbicide activity screening; settings: post-emerge, 14 days after application, rating scale 0-100
From the text: as §1, §2, §3, §4, §5

[10] = system: large crabgrass (Digitaria sanguinalis, DIGSA); assay: as above; settings: post-emerge, 14 days after application, rating scale 0-100
From the text: as §1, §2, §3, §4, §5

[11] = system: ivyleaf morningglory (Ipomoea hederacea, IPOHE); assay: as above; settings: post-emerge, 14 days after application, rating scale 0-100
From the text: as §1, §2, §3, §4, §5

[12] = system: lambsquarters (Chenopodium album, CHEAL); assay: as above; settings: post-emerge, 14 days after application, rating scale 0-100
From the text: as §1, §2, §3, §4, §5

[13] = system: redroot pigweed (Amaranthus retroflexus, AMARE); assay: as above; settings: post-emerge, 14 days after application
From the text: as §1, §2, §3, §4, §5

[14] = system: sicklepod (Cassia obtusifolia, CASOB); assay: as above; settings: post-emerge, 14 days after application, rating scale 0-100
From the text: as §1, §2, §3, §4, §5

[15] = system: barnyardgrass (Echinochloa crus-galli, ECHCG); assay: as above; settings: post-emerge, 14 days after application, rating scale 0-100
From the text: as §1, §2, §3, §4, §5

[16] = system: velvetleaf (Abutilon theophrasti, ABUTH); assay: as above; settings: post-emerge, 14 days after application, rating scale 0-100
From the text: as §1, §2, §3, §4, §5

[17] = system: field corn (Zea mays L., var. Dekalb 535, CORN); assay: Post-emerge test, crop safety; settings: post-emerge, 14 days after application, rating scale 0-100
Procedure, shortened: (§6)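 Herbicidal damage is scored 0 (none) to 100 (complete plant death) two weeks after a simulated field spray. Rates span 15–1000 g ai/ha, delivered in acetone at 187 l/ha. For post-emergence treatments, plants have 2–3 leaves and the spray carries 0.25% v/v non-ionic surfactant.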

[18] = system: upland rice (Oryza sp., var. Tebonnet, RICE); assay: Post-emerge test, crop safety; settings: post-emerge, 14 days after application, rating scale 0-100
Procedure, shortened: as §6

[19] = system: field corn (Zea mays L., var. Dekalb 535, CORN); assay: Pre-emerge test, crop safety; settings: pre-emerge, 14 days after application, rating scale 0-100
Procedure, shortened: (§7)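 Visual ratings on a 0-100 scale (0 no damage, 100 all plants dead) were taken at 14 days after treatment. Rates of 15-1000 g ai/ha in acetone, 187 l/ha, were sprayed onto soil one day after planting (pre-emerge) or onto 2-3 leaf plants with 0.25% v/v surfactant (post-emerge).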

[20] = system: upland rice (Oryza sp., var. Tebonnet, RICE); assay: Pre-emerge test, crop safety; settings: pre-emerge, 14 days after application, rating scale 0-100
Procedure, shortened: as §7

COc1c(Cl)cc(F)c(-n2c(=O)cc(C(F)(F)F)n(C)c2=O)c1NNC(=O)Nc1ccc(F)cc1F [15-8]
phytotoxicity rating SETVI ([1]; 63 g ai/ha): 20 | phytotoxicity rating SETVI ([1]; 250 g ai/ha): 0 | phytotoxicity rating DIGSA ([2]; 63 g ai/ha): 30 | phytotoxicity rating DIGSA ([2]; 250 g ai/ha): 100 | phytotoxicity rating IPOHE ([3]; 63 g ai/ha): 0 | phytotoxicity rating IPOHE ([3]; 250 g ai/ha): 70 | phytotoxicity rating CHEAL ([4]; 63 g ai/ha): 60 | phytotoxicity rating CHEAL ([4]; 250 g ai/ha): 100 | phytotoxicity rating CASOB ([5]; 63 g ai/ha): 20 | phytotoxicity rating CASOB ([5]; 250 g ai/ha): 80 | phytotoxicity rating ECHCG ([6]; 63 g ai/ha): 0 | phytotoxicity rating ECHCG ([6]; 250 g ai/ha): 40 | phytotoxicity rating ABUTH ([7]; 63 g ai/ha): 40 | phytotoxicity rating ABUTH ([7]; 250 g ai/ha): 100 | phytotoxicity rating AMARE ([8]; 63 g ai/ha): 60 | phytotoxicity rating AMARE ([8]; 250 g ai/ha): 100 | Post-emerge Herbicidal Activity SETVI (phytotoxicity rating) ([9]; 63 g ai/ha): 0 | Post-emerge Herbicidal Activity SETVI (phytotoxicity rating) ([9]; 250 g ai/ha): 30 | Post-emerge Herbicidal Activity DIGSA (phytotoxicity rating) ([10]; 63 g ai/ha): 0 | Post-emerge Herbicidal Activity DIGSA (phytotoxicity rating) ([10]; 250 g ai/ha): 0 | Post-emerge Herbicidal Activity IPOHE (phytotoxicity rating) ([11]; 63 g ai/ha): 50 | Post-emerge Herbicidal Activity IPOHE (phytotoxicity rating) ([11]; 250 g ai/ha): 90 | Post-emerge Herbicidal Activity CHEAL (phytotoxicity rating) ([12]; 63 g ai/ha): 95 | Post-emerge Herbicidal Activity CHEAL (phytotoxicity rating) ([12]; 250 g ai/ha): 90 | Post-emerge Herbicidal Activity AMARE (phytotoxicity rating) ([13]; 63 g ai/ha, rating scale 0-100 (0 no damage, 100 complete death)): 20 | Post-emerge Herbicidal Activity AMARE (phytotoxicity rating) ([13]; 250 g ai/ha, rating scale 0-100): 60 | Post-emerge Herbicidal Activity CASOB (phytotoxicity rating) ([14]; 63 g ai/ha): 0 | Post-emerge Herbicidal Activity CASOB (phytotoxicity rating) ([14]; 250 g ai/ha): 40 | Post-emerge Herbicidal Activity ECHCG (phytotoxicity rating) ([15]; 63 g ai/ha): 0 | Post-emerge Herbicidal Activity ECHCG (phytotoxicity rating) ([15]; 250 g ai/ha): 20 | Post-emerge Herbicidal Activity ABUTH (phytotoxicity rating) ([16]; 63 g ai/ha): 70 | Post-emerge Herbicidal Activity ABUTH (phytotoxicity rating) ([16]; 250 g ai/ha): 100 | Post-emerge Herbicidal Activity CORN (crop damage rating) ([17]; 63 g ai/ha): 0 | Post-emerge Herbicidal Activity CORN (crop damage rating) ([17]; 250 g ai/ha): 55 | Post-emerge Herbicidal Activity RICE (crop damage rating) ([18]; 63 g ai/ha): 10 | Post-emerge Herbicidal Activity RICE (crop damage rating) ([18]; 250 g ai/ha): 60 | phytotoxicity rating CORN ([19]; 63 g ai/ha): 0 | phytotoxicity rating CORN ([19]; 250 g ai/ha): 90 | phytotoxicity rating RICE ([20]; 63 g ai/ha): 15 | phytotoxicity rating RICE ([20]; 250 g ai/ha): 90
